{
  "source": "ChEMBL document CHEMBL3774389",
  "about": "“C-3 benzoic acid derivatives of C-3 deoxybetulinic acid and deoxybetulin as HIV-1 maturation inhibitors” (Bioorg Med Chem, 2016)",
  "data": [
    {"test_system": "Human immunodeficiency virus 1", "assay": "Antiviral activity against wild type HIV1 NLRepRlucP373S infected in human MT2 cells after 4 to 5 days by luciferase report gene based multiple cycle drug susceptibility assay", "format": "functional, organism-based", "details": "Human immunodeficiency virus 1, NLRepRlucP373S", "units": {"EC50": "nM"}, "values": [
      {"compound": "C=C(C)[C@@H]1CC[C@]2(C(=O)O)CC[C@]3(C)[C@H](CC[C@@H]4[C@@]5(C)CC=C(c6ccccc6CCC(=O)O)C(C)(C)[C@@H]5CC[C@]43C)[C@@H]12", "EC50": 3200},
      {"compound": "C=C(C)[C@@H]1CC[C@]2(C(=O)O)CC[C@]3(C)[C@H](CC[C@@H]4[C@@]5(C)CC=C(c6cccc(NS(C)(=O)=O)c6)C(C)(C)[C@@H]5CC[C@]43C)[C@@H]12", "EC50": 2130},
      {"compound": "C=C(C)[C@@H]1CC[C@]2(C(=O)O)CC[C@]3(C)[C@H](CC[C@@H]4[C@@]5(C)CC=C(c6ccn(CC(=O)O)n6)C(C)(C)[C@@H]5CC[C@]43C)[C@@H]12", "EC50": 167},
      {"compound": "C=C(C)[C@@H]1CC[C@]2(CO)CC[C@]3(C)[C@H](CC[C@@H]4[C@@]5(C)CC=C(c6ccc(C(=O)O)cc6C)C(C)(C)[C@@H]5CC[C@]43C)[C@@H]12", "EC50": 613},
      {"compound": "C=C(C)[C@@H]1CC[C@]2(C(=O)O)CC[C@]3(C)[C@H](CC[C@@H]4[C@@]5(C)CC=C(c6ccc(-c7cnc8ccccc8c7C(=O)O)cc6)C(C)(C)[C@@H]5CC[C@]43C)[C@@H]12", "EC50": 3600},
      {"compound": "C=C(C)[C@@H]1CC[C@]2(C(=O)O)CC[C@]3(C)[C@H](CC[C@@H]4[C@@]5(C)CC=C(c6ccc(C(=O)O)c(F)c6)C(C)(C)[C@@H]5CC[C@]43C)[C@@H]12", "EC50": 18},
      {"compound": "C=C(C)[C@@H]1CC[C@]2(C(=O)O)CC[C@]3(C)[C@H](CC[C@@H]4[C@@]5(C)CC=C(c6ccc(CCC(=O)O)cc6)C(C)(C)[C@@H]5CC[C@]43C)[C@@H]12", "EC50": 682},
      {"compound": "C=C(C)[C@@H]1CC[C@]2(CO)CC[C@]3(C)[C@H](CC[C@@H]4[C@@]5(C)CC=C(c6ccc(C(=O)O)cn6)C(C)(C)[C@@H]5CC[C@]43C)[C@@H]12", "EC50": 503},
      {"compound": "C=C(C)[C@@H]1CC[C@]2(C(=O)O)CC[C@]3(C)[C@H](CC[C@@H]4[C@@]5(C)CC=C(c6cccc(CCC(=O)O)c6)C(C)(C)[C@@H]5CC[C@]43C)[C@@H]12", "EC50": 571},
      {"compound": "C=C(C)[C@@H]1CC[C@]2(C(=O)O)CC[C@]3(C)[C@H](CC[C@@H]4[C@@]5(C)CC=C(c6ccc(C(=O)O)s6)C(C)(C)[C@@H]5CC[C@]43C)[C@@H]12", "EC50": 59},
      {"compound": "C=C(C)[C@@H]1CC[C@]2(CO)CC[C@]3(C)[C@H](CC[C@@H]4[C@@]5(C)CC=C(c6cc(C(=O)O)[nH]n6)C(C)(C)[C@@H]5CC[C@]43C)[C@@H]12", "EC50": 61},
      {"compound": "C=C(C)[C@@H]1CC[C@]2(C(=O)O)CC[C@]3(C)[C@H](CC[C@@H]4[C@@]5(C)CC=C(c6ccc(/C=C/C(=O)O)cc6)C(C)(C)[C@@H]5CC[C@]43C)[C@@H]12", "EC50": 734},
      {"compound": "C=C(C)[C@@H]1CC[C@]2(C(=O)O)CC[C@]3(C)[C@H](CC[C@@H]4[C@@]5(C)CC=C(c6ccc(C(=O)NC)cc6)C(C)(C)[C@@H]5CC[C@]43C)[C@@H]12", "EC50": 1600}
    ]},
    {"test_system": "Human immunodeficiency virus 1", "assay": "Antiviral activity against wild type HIV1 NLRepRlucP373S infected in human MT2 cells after 4 to 5 days in presence of 15 mg/ml HSA by luciferase report gene based multiple cycle drug susceptibility assay", "format": "functional, organism-based", "details": "Human immunodeficiency virus 1, NLRepRlucP373S", "units": {"EC50": "nM"}, "values": [
      {"compound": "C=C(C)[C@@H]1CC[C@]2(CO)CC[C@]3(C)[C@H](CC[C@@H]4[C@@]5(C)CC=C(c6ccc(C(=O)O)cc6C)C(C)(C)[C@@H]5CC[C@]43C)[C@@H]12", "EC50": 660},
      {"compound": "C=C(C)[C@@H]1CC[C@]2(C(=O)O)CC[C@]3(C)[C@H](CC[C@@H]4[C@@]5(C)CC=C(c6ccc(C(=O)O)c(F)c6)C(C)(C)[C@@H]5CC[C@]43C)[C@@H]12", "EC50": 67}
    ]},
    {"test_system": "Human immunodeficiency virus 1", "assay": "Ratio of EC50 for HIV1 NLRepRlucP373S infected in human MT2 cells in presence of HSA to EC50 for HIV1 NLRepRlucP373S infected in human MT2 cells in absence of HSA", "format": "functional", "details": "not given", "values": [
      {"compound": "C=C(C)[C@@H]1CC[C@]2(CO)CC[C@]3(C)[C@H](CC[C@@H]4[C@@]5(C)CC=C(c6ccc(C(=O)O)cc6C)C(C)(C)[C@@H]5CC[C@]43C)[C@@H]12", "Ratio EC50": 1},
      {"compound": "C=C(C)[C@@H]1CC[C@]2(C(=O)O)CC[C@]3(C)[C@H](CC[C@@H]4[C@@]5(C)CC=C(c6ccc(C(=O)O)c(F)c6)C(C)(C)[C@@H]5CC[C@]43C)[C@@H]12", "Ratio EC50": 3.7}
    ]},
    {"test_system": "Human immunodeficiency virus 1", "assay": "Antiviral activity against HIV1 containing gag V370A mutant infected in human MT2 cells after 4 to 5 days by luciferase report gene based multiple cycle drug susceptibility assay", "format": "functional, organism-based", "details": "Human immunodeficiency virus 1, MT2", "units": {"EC50": "nM"}, "values": [
      {"compound": "C=C(C)[C@@H]1CC[C@]2(C(=O)O)CC[C@]3(C)[C@H](CC[C@@H]4[C@@]5(C)CC=C(c6ccn(CC(=O)O)n6)C(C)(C)[C@@H]5CC[C@]43C)[C@@H]12", "EC50": "> 3000"},
      {"compound": "C=C(C)[C@@H]1CC[C@]2(CO)CC[C@]3(C)[C@H](CC[C@@H]4[C@@]5(C)CC=C(c6ccc(C(=O)O)cc6C)C(C)(C)[C@@H]5CC[C@]43C)[C@@H]12", "EC50": 3880},
      {"compound": "C=C(C)[C@@H]1CC[C@]2(C(=O)O)CC[C@]3(C)[C@H](CC[C@@H]4[C@@]5(C)CC=C(c6ccc(C(=O)O)c(F)c6)C(C)(C)[C@@H]5CC[C@]43C)[C@@H]12", "EC50": 36},
      {"compound": "C=C(C)[C@@H]1CC[C@]2(CO)CC[C@]3(C)[C@H](CC[C@@H]4[C@@]5(C)CC=C(c6ccc(C(=O)O)cn6)C(C)(C)[C@@H]5CC[C@]43C)[C@@H]12", "EC50": "> 2000"},
      {"compound": "C=C(C)[C@@H]1CC[C@]2(C(=O)O)CC[C@]3(C)[C@H](CC[C@@H]4[C@@]5(C)CC=C(c6ccc(C(=O)O)s6)C(C)(C)[C@@H]5CC[C@]43C)[C@@H]12", "EC50": "> 2000"},
      {"compound": "C=C(C)[C@@H]1CC[C@]2(CO)CC[C@]3(C)[C@H](CC[C@@H]4[C@@]5(C)CC=C(c6cc(C(=O)O)[nH]n6)C(C)(C)[C@@H]5CC[C@]43C)[C@@H]12", "EC50": 348}
    ]},
    {"test_system": "not listed separately", "assay": "Cytotoxicity against human MT2 cells assessed as cell viability by redox dye assay", "format": "cell-based", "details": "not given", "units": {"CC50": "nM"}, "values": [
      {"compound": "C=C(C)[C@@H]1CC[C@]2(C(=O)O)CC[C@]3(C)[C@H](CC[C@@H]4[C@@]5(C)CC=C(c6ccccc6CCC(=O)O)C(C)(C)[C@@H]5CC[C@]43C)[C@@H]12", "CC50": 5030},
      {"compound": "C=C(C)[C@@H]1CC[C@]2(C(=O)O)CC[C@]3(C)[C@H](CC[C@@H]4[C@@]5(C)CC=C(c6cccc(NS(C)(=O)=O)c6)C(C)(C)[C@@H]5CC[C@]43C)[C@@H]12", "CC50": 12700},
      {"compound": "C=C(C)[C@@H]1CC[C@]2(C(=O)O)CC[C@]3(C)[C@H](CC[C@@H]4[C@@]5(C)CC=C(c6ccn(CC(=O)O)n6)C(C)(C)[C@@H]5CC[C@]43C)[C@@H]12", "CC50": "> 30000"},
      {"compound": "C=C(C)[C@@H]1CC[C@]2(CO)CC[C@]3(C)[C@H](CC[C@@H]4[C@@]5(C)CC=C(c6ccc(C(=O)O)cc6C)C(C)(C)[C@@H]5CC[C@]43C)[C@@H]12", "CC50": 7020},
      {"compound": "C=C(C)[C@@H]1CC[C@]2(C(=O)O)CC[C@]3(C)[C@H](CC[C@@H]4[C@@]5(C)CC=C(c6ccc(-c7cnc8ccccc8c7C(=O)O)cc6)C(C)(C)[C@@H]5CC[C@]43C)[C@@H]12", "CC50": 15900},
      {"compound": "C=C(C)[C@@H]1CC[C@]2(C(=O)O)CC[C@]3(C)[C@H](CC[C@@H]4[C@@]5(C)CC=C(c6ccc(C(=O)O)c(F)c6)C(C)(C)[C@@H]5CC[C@]43C)[C@@H]12", "CC50": 10100},
      {"compound": "C=C(C)[C@@H]1CC[C@]2(C(=O)O)CC[C@]3(C)[C@H](CC[C@@H]4[C@@]5(C)CC=C(c6ccc(CCC(=O)O)cc6)C(C)(C)[C@@H]5CC[C@]43C)[C@@H]12", "CC50": 6550},
      {"compound": "C=C(C)[C@@H]1CC[C@]2(CO)CC[C@]3(C)[C@H](CC[C@@H]4[C@@]5(C)CC=C(c6ccc(C(=O)O)cn6)C(C)(C)[C@@H]5CC[C@]43C)[C@@H]12", "CC50": 4300},
      {"compound": "C=C(C)[C@@H]1CC[C@]2(C(=O)O)CC[C@]3(C)[C@H](CC[C@@H]4[C@@]5(C)CC=C(c6cccc(CCC(=O)O)c6)C(C)(C)[C@@H]5CC[C@]43C)[C@@H]12", "CC50": 1830},
      {"compound": "C=C(C)[C@@H]1CC[C@]2(C(=O)O)CC[C@]3(C)[C@H](CC[C@@H]4[C@@]5(C)CC=C(c6ccc(C(=O)O)s6)C(C)(C)[C@@H]5CC[C@]43C)[C@@H]12", "CC50": 790},
      {"compound": "C=C(C)[C@@H]1CC[C@]2(CO)CC[C@]3(C)[C@H](CC[C@@H]4[C@@]5(C)CC=C(c6cc(C(=O)O)[nH]n6)C(C)(C)[C@@H]5CC[C@]43C)[C@@H]12", "CC50": 570},
      {"compound": "C=C(C)[C@@H]1CC[C@]2(C(=O)O)CC[C@]3(C)[C@H](CC[C@@H]4[C@@]5(C)CC=C(c6ccc(/C=C/C(=O)O)cc6)C(C)(C)[C@@H]5CC[C@]43C)[C@@H]12", "CC50": "> 8000"},
      {"compound": "C=C(C)[C@@H]1CC[C@]2(C(=O)O)CC[C@]3(C)[C@H](CC[C@@H]4[C@@]5(C)CC=C(c6ccc(C(=O)NC)cc6)C(C)(C)[C@@H]5CC[C@]43C)[C@@H]12", "CC50": 22600}
    ]}
  ]
}
